This note sets out measurements from ChEMBL document CHEMBL5725536, “Multiple kinase pathway inhibitors” (2017).

Usually IC50 stands for the concentration that gives 50% inhibition.

The target in assay [1] is Tyrosine-protein kinase Lyn (Homo sapiens, UniProt P07948). As to the kind of experiment: (§1) Kinase Assays: A concentration of a drug that reduces the observed activity of an enzyme by 50%. An IC50 is not a true affinity constant and the specific value determined can vary depending on the particular assay used. Nonetheless the rank order of IC50 for a set of compounds will typically be similar from one assay to another. (The true affinity constant for an inhibitor binding to an enzyme, Ki, can of course also be used for the same purposes as described herein for IC50). With respect to the kinases that are targeted by the compounds disclosed herein, kinase activity can be assayed, without limitation, as consumption of ATP or as incorporation of phosphate into a substrate. For example, the assay used in Example 76 assesses consumption of ATP based on luminescent detection of ADP. As an alternate example, the assay used in Example 78 assesses incorporation of phosphate based on the radiologic detection of 33P-labeled artificial substrates. Myriad other kinase assays are known in the art many of which are commercially available either as a kit or a service and one of skill in the art will recognize their particular usefulness for generating IC50 data.
Chain of Tyrosine-protein kinase Lyn (P07948 whole entry): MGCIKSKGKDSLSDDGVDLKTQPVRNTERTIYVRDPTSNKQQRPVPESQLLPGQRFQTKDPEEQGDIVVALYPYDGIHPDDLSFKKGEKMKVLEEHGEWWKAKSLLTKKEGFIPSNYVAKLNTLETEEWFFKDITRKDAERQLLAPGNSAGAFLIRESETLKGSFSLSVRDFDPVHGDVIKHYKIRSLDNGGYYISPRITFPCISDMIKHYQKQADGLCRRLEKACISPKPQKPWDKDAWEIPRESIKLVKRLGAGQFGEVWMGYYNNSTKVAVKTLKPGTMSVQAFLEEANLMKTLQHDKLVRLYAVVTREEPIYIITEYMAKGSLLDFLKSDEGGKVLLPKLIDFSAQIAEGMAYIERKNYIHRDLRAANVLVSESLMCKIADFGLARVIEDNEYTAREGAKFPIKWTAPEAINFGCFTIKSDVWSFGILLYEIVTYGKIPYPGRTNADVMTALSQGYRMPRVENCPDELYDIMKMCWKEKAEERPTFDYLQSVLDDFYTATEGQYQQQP

Assay [2] deals with Proto-oncogene tyrosine-protein kinase Src (Homo sapiens, UniProt P12931). The description is as §1.
Chain of Proto-oncogene tyrosine-protein kinase Src (P12931 2-536 limits assumed): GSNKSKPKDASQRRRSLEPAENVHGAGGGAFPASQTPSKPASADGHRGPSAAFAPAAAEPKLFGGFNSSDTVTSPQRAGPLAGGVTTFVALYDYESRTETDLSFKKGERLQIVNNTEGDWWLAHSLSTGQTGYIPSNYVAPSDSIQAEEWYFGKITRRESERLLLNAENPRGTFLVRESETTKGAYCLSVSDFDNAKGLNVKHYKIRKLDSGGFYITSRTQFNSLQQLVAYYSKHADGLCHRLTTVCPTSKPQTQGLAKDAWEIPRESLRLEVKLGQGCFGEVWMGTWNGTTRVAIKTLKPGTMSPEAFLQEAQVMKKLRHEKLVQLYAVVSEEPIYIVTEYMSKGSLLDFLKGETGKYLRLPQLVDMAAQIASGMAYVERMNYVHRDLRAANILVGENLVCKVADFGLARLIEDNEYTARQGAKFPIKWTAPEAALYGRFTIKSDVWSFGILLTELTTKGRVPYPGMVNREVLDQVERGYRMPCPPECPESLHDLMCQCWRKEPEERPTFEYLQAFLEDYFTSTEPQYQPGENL

With `CC(C)n1c(=O)c(-c2c(F)cccc2F)cc2cnc(Nc3ccc(F)cn3)cc21`, the IC50 in assay [1] and in assay [2] was over 5 µM each time. On to `CCN(CC)CCOc1ccc(Nc2cc3c(cn2)cc(C(C)C)c(=O)n3C)nc1`, for which the IC50 in assay [1] is over 5 µM.
